The test system of assay [1] is adiponectin secretion in 3T3-L1 cells. Nature of the assay: adiponectin secretion amount of 3T3-L1 adipocytes by ELISA. The conditions noted are these: for Adiponectin secretion amount: 3T3-L1 medium supernatant 7 days after differentiation induction, non-treatment control 3.49 ± 0.78, average ± standard error. Format: cell-based. As to the method: Next, culture preadipocytes 3T-L1 were thawed, inoculated in a 100 mm dish and cultured until 3T3-L 1 cells reached about 80% confluence. A single dish of 3T3-L1 that had reached about 80% confluence was subcultured to a single 6-well plate and further cultured until the 3T3-L1 cells reached confluence in the 6-well plate, and then the medium was replaced with the differentiation induction medium, followed by differentiation induction. 48 hours later, the medium was replaced with the differentiation promotion medium, and thereafter, the medium was replaced with the differentiation promotion medium every two days. 7 days after the initiation of the differentiation induction, mRNA was extracted using Sepasol(R)—RNA I super (manufactured by Nacalai Tesque, Inc.), and the mRNA expression amounts of 36B4, aP2 and adiponectin, which were indicators of an early period of adipocyte differentiation, were measured using Light Cycler™. Also, the medium 7 days after the differentiation induction was taken in an amount of 1 mL from each well, and the amount of adiponectin in the medium supernatant was measured using a mouse/rat adiponectin ELISA kit (trade name) (manufactured by Otsuka Pharmaceutical Co., Ltd.). […]
Only the strips of the antibody plates necessary for the analysis were taken out. […] 100 μL of the standard solutions with respective concentrations and 100 μL of the diluted analytes were added to individual wells and measured in duplicate. Incidentally, the standard solutions always were measured for each measurement and each plate. […] After 100 μL of the substrate solution was added to each well of the antibody plate and allowed to stand still for reaction for 15 minutes at room temperature, 100 μL of the reaction stop solution was added to each well of the antibody plate, and then the absorbance at 450 nm in each well was measured with a plate reader.
For orientation: ELISA stands for enzyme-linked immunosorbent assay.

The test system of assay [2] is VLDL secretion in HepG2 cells. Nature of the assay: VLDL secretion inhibition experiment in HepG2 cells (apoB100 ELISA). The assay is classed as cell-based, human. The conditions noted are these: for VLDL secretion ratio (%): HepG2, 30 hours, measurement group/control group, control (DMSO) = 100, average ± standard error. As to the method:
FCS, a non-essential amino acid, sodium pyruvate and a glutamine solution were mixed such that the final concentrations of the FCS, the non-essential amino acid, the sodium pyruvate and the glutamine solution respectively were 10%, 1%, 1 mM and 2 mM, and added to an MEM medium (manufactured by SIGMA). They were mixed aseptically on a clean bench. In a 100 mm/Collagen-Coated Dish (trade name, manufactured by Iwaki Glass Works, Co.), the medium of HepG2 cells (human hepatic cells) that had been cultured to 80% to 90% confluence was removed with a pipette and washed with 2 mL of 1×PBS. After adding 2 mL of trypsin-EDTA and rotating the above-noted dish slowly so that trypsin-EDTA spread over the entire cells, this trypsin-EDTA was removed with a pipette. The dish was allowed to stand still for 15 minutes in a CO2 incubator (37° C., 5%), and then 4 mL of a growth medium was added to this dish, followed by mixing by pipetting. Then, 2 mL of this mixture was added to each of two dishes to which 3 mL of a growth medium was added in advance. These dishes were covered with lids and moved crisscross so as to mix the content. The cells were checked using a microscope (manufactured by Olympus Corporation) and cultured in a CO2 incubator (37° C., 5%). Three or four days later, after checking that 80% to 90% confluence was achieved using the microscope, subculture was carried out in a similar manner, followed by cell culture.
First, a VLDL standard solution was prepared. The VLDL standard solution was prepared by diluting 1.169 mg/mL of human VLDL standard (trade name, manufactured by CHEMICON International, Inc.) with a growth medium. The dilution factors were 100, 1000, 10000, 100000 and 1000000.
A sandwich ELISA that recognized human […] in the VLDL as an antigen was used. First, 100 μL of Moab×LDL Apolipoprotein B (ApoB) (manufactured under MONOSAN®) was dispensed in each well of ELISA PLATE, and the plate was sealed with a sterile seal and then allowed to stand still at 4° C. overnight. In the following, all the dispensing mentioned is for a single well. On the next day, 200 μL of Zepto Block (trade name, manufactured by ZeptoMetrix Corporation) was dispensed, and then the above-noted plate was sealed and allowed to stand still for 2 hours at room temperature for blocking. Subsequently, 100 μL of the medium and the VLDL standard solution were dispensed, and then the above-noted plate was sealed and allowed to stand still for 1 hour at room temperature. Washing with 200 μL of PBST and absorption using an aspirator were carried out five times in total. […] 100 μL of 1M phosphoric acid solution was added to the above-noted mixture solution, and the absorbance at 450 nm was measured using wallac ARVOsx (trade name, PerkinElmer Life Sciences, PerkinElmer, Inc.). […]

Take `CC(C)=CCC/C(C)=C/COc1ccc2ccc(=O)oc2c1` [Aurapten, aurapten]: the Adiponectin secretion amount is 3.64 ± 0.82 in assay [1] (aurapten 1 μM) and 4.69 ± 0.16 in assay [1] (aurapten 5 μM). For the same compound, the “effect on adiponectin secretion in adipocytes (in words)” value in assay [1] (compared with non-treated control medium) is on record as “enhance the secretion of adiponectin”. The “effect on VLDL secretion (in words)” value in assay [2] (10-50 μM, degree of inhibition increased as concentration rose) was “VLDL secretion was inhibited”. For the same compound, the “VLDL secretion ratio (%)” value amounted to 63.1 ± 5.31% in assay [2] (aurapten 10 μM), 61.6 ± 2.21% in assay [2] (aurapten 20 μM) and 45.6 ± 4.04% in assay [2] (aurapten 50 μM).

Values taken from patent US8802723B2, “Metabolic syndrome-improving agent and medicine, supplement, functional food and food additive containing the same” (ARKRAY, Inc., priority 2005, dated 2014).
